Test results: ChEMBL document CHEMBL1275464, “Characterization of the carbapenem-hydrolyzing oxacillinase oxa-58 in an Acinetobacter genospecies 3 clinical isolate” (2008)
Converted amounts (≈) assume the structure as drawn.

Key:
Assay type in all cases: functional
[1] = system: Acinetobacter baumannii; experiment: Antimicrobial activity against Acinetobacter baumannii isolate Ac058 expressing beta-lactamase Oxa-58 by broth microdilution method
[2] = system: Acinetobacter pittii; experiment: Antimicrobial activity against Acinetobacter genospecies 3 isolate Ac057 expressing beta-lactamase Oxa-58 by broth microdilution method
[3] = system: Acinetobacter baumannii; experiment: Antimicrobial activity against Acinetobacter baumannii isolate Ac058 expressing beta-lactamase Oxa-58 by broth microdilution method in presence of beta-lactamase inhibitor Sulbactam

Compound	MIC [1]	MIC [2]	MIC [3]
CC(=O)OCC1=C(C(=O)O)N2C(=O)[C@@H](NC(=O)Cc3cccs3)[C@H]2SC1 [CEPHALOTHIN]	256 µg/mL (≈ 646 µM)	256 µg/mL (≈ 646 µM)	–
GENTAMICIN	16 µg/mL	< 1 µg/mL	–
NCC[C@H](O)C(=O)N[C@@H]1C[C@H](N)[C@@H](O[C@H]2O[C@H](CN)[C@@H](O)[C@H](O)[C@H]2O)[C@H](O)[C@H]1O[C@H]1O[C@H](CO)[C@@H](O)[C@H](N)[C@H]1O [AMIKACIN]	256 µg/mL (≈ 437 µM)	0.5 µg/mL (≈ 0.854 µM)	–
CCN1CCN(C(=O)N[C@@H](C(=O)N[C@@H]2C(=O)N3[C@@H]2SC(C)(C)[C@@H]3C(=O)O)c2ccccc2)C(=O)C1=O [PIPERACILLIN]	512 µg/mL (≈ 989 µM)	512 µg/mL (≈ 989 µM)	–
C[C@@H](O)[C@H]1C(=O)N2C(C(=O)O)=C(SCCNC=N)C[C@H]12 [IMIPENEM ANHYDROUS]	> 32 µg/mL	> 32 µg/mL	–
CO/N=C(\C(=O)N[C@@H]1C(=O)N2C(C(=O)[O-])=C(C[N+]3(C)CCCC3)CS[C@H]12)c1csc(N)n1 [CEFEPIME]	64 µg/mL (≈ 133 µM)	8 µg/mL (≈ 16.6 µM)	–
CC(C)(O/N=C(\C(=O)N[C@@H]1C(=O)N2C(C(=O)[O-])=C(C[n+]3ccccc3)CS[C@H]12)c1csc(N)n1)C(=O)O [CEFTAZIDIME]	256 µg/mL (≈ 468 µM)	8 µg/mL (≈ 14.6 µM)	–
CC[C@H]1OC(=O)[C@H](C)[C@@H](O[C@H]2C[C@@](C)(OC)[C@@H](O)[C@H](C)O2)[C@H](C)[C@@H](O[C@@H]2O[C@H](C)C[C@H](N(C)C)[C@H]2O)[C@](C)(O)C[C@@H](C)CN(C)[C@H](C)[C@@H](O)[C@]1(C)O [AZITHROMYCIN]	128 µg/mL (≈ 171 µM)	4 µg/mL (≈ 5.34 µM)	–
CO[C@@]1(NC(=O)Cc2cccs2)C(=O)N2C(C(=O)O)=C(COC(N)=O)CS[C@@H]21 [CEFOXITIN]	256 µg/mL (≈ 599 µM)	256 µg/mL (≈ 599 µM)	–
CC1(C)S[C@@H]2[C@H](NC(=O)[C@H](N)c3ccccc3)C(=O)N2[C@H]1C(=O)O [AMPICILLIN]	256 µg/mL (≈ 733 µM)	256 µg/mL (≈ 733 µM)	64 µg/mL
POLYMYXIN B	1 µg/mL	2 µg/mL	–
NC[C@H]1O[C@H](O[C@H]2[C@H](O)[C@@H](O[C@H]3O[C@H](CO)[C@@H](O)[C@H](N)[C@H]3O)[C@H](N)C[C@@H]2N)[C@H](N)C[C@@H]1O [TOBRAMYCIN]	64 µg/mL (≈ 137 µM)	0.25 µg/mL (≈ 0.535 µM)	–
C[C@H]1c2cccc(O)c2C(=O)C2=C(O)[C@]3(O)C(=O)C(C(N)=O)=C(O)[C@@H](N(C)C)[C@@H]3[C@@H](O)[C@@H]21.O [DOXYCYCLINE]	16 µg/mL	< 0.5 µg/mL	–
CO[C@H]1/C=C/O[C@@]2(C)Oc3c(C)c(O)c4c(O)c(c(/C=N/N5CCN(C)CC5)c(O)c4c3C2=O)NC(=O)/C(C)=C\C=C\[C@H](C)[C@H](O)[C@@H](C)[C@@H](O)[C@@H](C)[C@H](OC(C)=O)[C@@H]1C [RIFAMPIN]	2 µg/mL (≈ 2.43 µM)	2 µg/mL (≈ 2.43 µM)	–
O=C(O)c1cn(C2CC2)c2cc(N3CCNCC3)c(F)cc2c1=O [CIPROFLOXACIN]	–	32 µg/mL (≈ 96.6 µM)	–
C[C@@H](O)[C@H]1C(=O)N2C(C(=O)O)=C(S[C@@H]3CN[C@H](C(=O)N(C)C)C3)[C@H](C)[C@H]12 [MEROPENEM]	8 µg/mL (≈ 20.9 µM)	8 µg/mL (≈ 20.9 µM)	–
